According to patent publication US10800792B2, “Inhibitors of Bruton's tyrosine kinase and method of their use” (JANSSEN PHARMACEUTICA NV, priority 2015, dated 2020):

Target: unphosphorylated-BTK kinase domain (UP-BTK), GST-tagged human BTK (389-659aa) (Homo sapiens (Human), UniProt Q06187)
Assay: BTK kinase Lanthascreen binding assay
Settings: unphosphorylated-BTK kinase domain, 50 nM Tracer 236, 60 minutes; pIC50 = negative log of the IC50 in molar
In short: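 A fluorescent tracer is bound to unphosphorylated BTK; test compound is added to compete it off; the Lanthascreen signal is read and IC50 is fitted, then reported as its negative log in molar.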

Chain of unphosphorylated-BTK kinase domain (UP-BTK), GST-tagged human BTK (389-659aa) (Q06187 389-659): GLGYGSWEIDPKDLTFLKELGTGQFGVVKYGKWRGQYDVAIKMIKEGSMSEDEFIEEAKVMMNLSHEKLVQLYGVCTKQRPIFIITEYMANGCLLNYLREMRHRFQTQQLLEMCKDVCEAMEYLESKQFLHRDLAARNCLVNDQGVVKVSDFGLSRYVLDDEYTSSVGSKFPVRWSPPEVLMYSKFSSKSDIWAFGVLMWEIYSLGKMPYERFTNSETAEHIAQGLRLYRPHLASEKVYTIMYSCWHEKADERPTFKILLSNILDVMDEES

Compound | BTK_I_binding pIC50
C=CC(=O)N1CC(NC(=O)c2sc3nccc4c3c2NC(=O)N4c2ccc(Oc3ccccc3)cc2C)C1 [Example 496, N-(1-Acryloylazetidin-3-yl)-5-(*S)-(2-methyl-4-phenoxyphenyl)-4-oxo-4,5-dihydro-3H-1-thia-3,5,8-triazaacenaphthylene-2-carboxamide] | 7.4
C=CC(=O)N1CCC[C@@H](NC(=O)c2sc3nccc4c3c2NC(=O)N4c2ncc(Oc3ccccc3)cc2C)C1 [Example 497, (R)—N-(1-Acryloylpiperidin-3-yl)-5-(3-methyl-5-phenoxypyridin-2-yl)-4-oxo-4,5-dihydro-3H-1-thia-3,5,8-triazaacenaphthylene-2-carboxamide] | 7.9
C=CC(=O)N1CCC[C@@H](NC(=O)c2sc3nccc4c3c2NC(=O)N4c2cccc(-c3cccc(F)c3F)c2)C1 [Example 498, (R)—N-(1-Acryloylpiperidin-3-yl)-5-(2′,3′-difluoro-[1,1′-biphenyl]-3-yl)-4-oxo-4,5-dihydro-3H-1-thia-3,5,8-triazaacenaphthylene-2-carboxamide] | 7.8
C=CC(=O)N1CCC[C@@H](NC(=O)c2sc3nccc4c3c2NC(=O)N4c2cccc(-c3cccc(F)c3)c2)C1 [Example 500, (R)—N-(1-Acryloylpiperidin-3-yl)-5-(3′-fluoro-[1,1′-biphenyl]-3-yl)-4-oxo-4,5-dihydro-3H-1-thia-3,5,8-triazaacenaphthylene-2-carboxamide] | 8.1
C=CC(=O)N1CCC[C@@H](NC(=O)c2sc3nccc4c3c2NC(=O)N4c2cccc(-c3ccccc3C)c2)C1 [Example 504, (R)—N-(1-Acryloylpiperidin-3-yl)-5-(2′-methyl-[1,1′-biphenyl]-3-yl)-4-oxo-4,5-dihydro-3H-1-thia-3,5,8-triazaacenaphthylene-2-carboxamide] | 8.0
C=CC(=O)N1CCC[C@@H](NC(=O)c2sc3nccc4c3c2NC(=O)N4c2ccc(Oc3ccccc3)nc2)C1 [Example 506, (R)—N-(1-Acryloylpiperidin-3-yl)-4-oxo-5-(6-phenoxypyridin-3-yl)-4,5-dihydro-3H-1-thia-3,5,8-triazaacenaphthylene-2-carboxamide] | 7.9
C=CC(=O)N1CCC[C@@H](NC(=O)c2sc3nccc4c3c2NC(=O)N4c2cccc(-c3cccc(Cl)c3)c2)C1 [Example 507, (R)—N-(1-Acryloylpiperidin-3-yl)-5-(3′-chloro-[1,1′-biphenyl]-3-yl)-4-oxo-4,5-dihydro-3H-1-thia-3,5,8-triazaacenaphthylene-2-carboxamide] | 7.8
C=CC(=O)N1CCC[C@@H](NC(=O)c2sc3nccc4c3c2NC(=O)N4c2cccc(-c3ccccc3Cl)c2)C1 [Example 510, (R)—N-(1-Acryloylpiperidin-3-yl)-5-(2′-chloro-[1,1′-biphenyl]-3-yl)-4-oxo-4,5-dihydro-3H-1-thia-3,5,8-triazaacenaphthylene-2-carboxamide] | 8.0
C=CC(=O)N1CCC[C@@H](NC(=O)c2sc3nccc4c3c2NC(=O)N4c2ccnc(-c3ccccc3)c2)C1 [Example 512, (R)—N-(1-Acryloylpiperidin-3-yl)-4-oxo-5-(2-phenylpyridin-4-yl)-4,5-dihydro-3H-1-thia-3,5,8-triazaacenaphthylene-2-carboxamide] | 7.8
C=CC(=O)N1CCC[C@@H](NC(=O)c2sc3nccc4c3c2NC(=O)N4c2ccc(Oc3ccccc3)cn2)C1 [Example 513, (R)—N-(1-Acryloylpiperidin-3-yl)-4-oxo-5-(5-phenoxypyridin-2-yl)-4,5-dihydro-3H-1-thia-3,5,8-triazaacenaphthylene-2-carboxamide] | 8.2
C=CC(=O)N1CCC[C@@H](NC(=O)c2sc3nccc4c3c2NC(=O)N4c2cccc(-c3ccc(F)cc3F)c2)C1 [Example 515, (R)—N-(1-Acryloylpiperidin-3-yl)-5-(2′,4′-difluoro-[1,1′-biphenyl]-3-yl)-4-oxo-4,5-dihydro-3H-1-thia-3,5,8-triazaacenaphthylene-2-carboxamide] | 7.7
C=CC(=O)N1CCC[C@@H](NC(=O)c2sc3nccc4c3c2NC(=O)N4c2cccc(Cc3ccccc3)c2)C1 [Example 516, (R)—N-(1-Acryloylpiperidin-3-yl)-5-(3-benzylphenyl)-4-oxo-4,5-dihydro-3H-1-thia-3,5,8-triazaacenaphthylene-2-carboxamide] | 7.7
C=CC(=O)N1CCC[C@@H](NC(=O)c2sc3nccc4c3c2NC(=O)N4c2cccc(-c3cccc(C)c3)c2)C1 [Example 517, (R)—N-(1-Acryloylpiperidin-3-yl)-5-(3′-methyl-[1,1′-biphenyl]-3-yl)-4-oxo-4,5-dihydro-3H-1-thia-3,5,8-triazaacenaphthylene-2-carboxamide] | 7.5
C=CC(=O)N1CCC[C@@H](NC(=O)c2sc3nccc4c3c2NC(=O)N4c2cccc(C3CCCCC3)c2)C1 [Example 519, (R)—N-(1-Acryloylpiperidin-3-yl)-5-(3-cyclohexylphenyl)-4-oxo-4,5-dihydro-3H-1-thia-3,5,8-triazaacenaphthylene-2-carboxamide] | 7.3
C=CC(=O)N1CCC[C@@H](NC(=O)c2sc3nccc4c3c2NC(=O)N4c2cccc(-c3ccc(C)cc3)c2)C1 [Example 521, (R)—N-(1-Acryloylpiperidin-3-yl)-5-(4′-methyl-[1,1′-biphenyl]-3-yl)-4-oxo-4,5-dihydro-3H-1-thia-3,5,8-triazaacenaphthylene-2-carboxamide] | 7.5
C=CC(=O)N1CCC[C@@H](NC(=O)c2sc3nccc4c3c2NC(=O)N4c2ccc3c(c2)OC(F)(F)O3)C1 [Example 525, (R)—N-(1-Acryloylpiperidin-3-yl)-5-(2,2-difluorobenzo[d][1,3]dioxol-5-yl)-4-oxo-4,5-dihydro-3H-1-thia-3,5,8-triazaacenaphthylene-2-carboxamide] | 7.5
C=CC(=O)N1CCC[C@@H](NC(=O)c2sc3nccc4c3c2NC(=O)N4c2cc(-c3ccccc3)ccn2)C1 [Example 526, (R)—N-(1-Acryloylpiperidin-3-yl)-4-oxo-5-(4-phenylpyridin-2-yl)-4,5-dihydro-3H-1-thia-3,5,8-triazaacenaphthylene-2-carboxamide] | 7.6
C=CC(=O)N1CCC[C@@H](NC(=O)c2sc3nccc4c3c2NC(=O)N4c2cccc(Oc3ccccc3)c2)C1 [Example 527, (R)—N-(1-Acryloylpiperidin-3-yl)-4-oxo-5-(3-phenoxyphenyl)-4,5-dihydro-3H-1-thia-3,5,8-triazaacenaphthylene-2-carboxamide] | 8.1
C=CC(=O)N1CCC[C@@H](NC(=O)c2sc3nccc4c3c2NC(=O)N4c2cnc(Oc3ccccc3)cn2)C1 [Example 528, (R)—N-(1-Acryloylpiperidin-3-yl)-4-oxo-5-(5-phenoxypyrazin-2-yl)-4,5-dihydro-3H-1-thia-3,5,8-triazaacenaphthylene-2-carboxamide] | 7.8
